No end group written: not given here. *: point of attachment. Octanoyl = CCCCCCCC(=O)*
Test system: animals with poor physical conditions, surgery or no surgery
Test: Example 3-2: improvement after ghrelin in animals which had or had not undergone a surgery
Format: in vivo, canines and felines
Settings: dash = no significant difference
Description: A canine-derived ghrelin was repeatedly administered intravenously or subcutaneously to each of the animals with poor physical conditions. The dose of intravenous administration was approximately 5 μg/kg or 10 μg/kg, and the dose of subcutaneous administration was approximately 100 μg/kg. The mean number of doses in repeated administration was approximately four times, and the maximum number of doses was 11 times. The administration period was one to six days.
Evaluation parameters evaluated before and after administration of ghrelin were appetite, quantity of meal, biochemical test values (GOT, GPT, BUN, CRE, CPK, CRP), blood cell test values (white blood cell [WBC], platelet [PLT]), body temperature, activity (vigor), skin, coat, wellness, the degree of anger or anxiety, respiratory rate, and others. These parameters were analyzed together with the results of the animals receiving a single dose (Examples 1 and 2). The analysis results were compiled by disease, such as renal dysfunction, tumor, fracture, and accident (see Table 3-1). Statistical analysis of values before and after administration was performed using a paired t-test.
Ghrelin was administered to animals with poor physical conditions after surgery for the treatment of various pathological conditions, and various parameters indicating physical conditions before and after administration of ghrelin were analyzed. The surgery included urethroplasty, surgery for a fracture, luxation, disc hernia, or diaphragmatic hernia, surgical removal of a tumor, and surgical removal of a reproductive organ due to pyometra.
Meanwhile, ghrelin was administered to animals with poor physical conditions due to various pathological conditions which had not undergone a surgery, and various parameters indicating physical conditions before and after administration of ghrelin were analyzed. The pathological conditions included filariasis, mite infestation, babesiosis, hemobartonellosis, bite, and dermatitis.

GSS (n-octanoyl) FLSPEHQKLQQRKESKKPPAKLQPR (GSS(Octanoyl)FLSPEHQKLQQRKESKKPPAKLQPR; listed as Canis familiaris) [ghrelin, chemically synthesized, lyophilized]
BUN: significance (p) of improvement after vs before administration (no surgery, 24 animals): p < 0.05
GPT: significance (p) of improvement after vs before administration (no surgery, 24 animals): p < 0.05
Vigor: significance (p) of improvement after vs before administration (no surgery, 24 animals): p < 0.01
WBC: significance (p) of improvement after vs before administration (no surgery, 24 animals): p < 0.05
BUN: significance (p) of improvement after vs before administration (surgery, 70 animals): p < 0.05
Body temperature: significance (p) of improvement after vs before administration (surgery, 70 animals): p < 0.01
CRE: significance (p) of improvement after vs before administration (surgery, 70 animals): p < 0.05
Degree of anger: significance (p) of improvement after vs before administration (surgery, 70 animals): p < 0.01
GOT: significance (p) of improvement after vs before administration (surgery, 70 animals): p < 0.01
GPT: significance (p) of improvement after vs before administration (surgery, 70 animals): p < 0.01
PLT: significance (p) of improvement after vs before administration (surgery, 70 animals): p < 0.05
Respiratory rate: significance (p) of improvement after vs before administration (surgery, 70 animals): p < 0.05
Vigor: significance (p) of improvement after vs before administration (surgery, 70 animals): p < 0.01

From patent US9078868B2, “Therapeutic agent for accelerating recovery of animal under medical treatment” (UNIVERSITY OF MIYAZAKI, priority 2010, dated 2015)
